As a reminder, the EC50 is the concentration at which the effect is half-maximal. A lower EC50 goes with an effect from little substance. Broadly, the IC50 is the midpoint of a concentration-inhibition curve.

Results on four molecules are retold here after PMC3828267 (PLoS ONE, 2013).

SMILES strings stand for the structures. Where “and” joins values, the source holds several entries; their conditions need not be identical. Identical values can stand only once. Like-named read-outs stand apart in the source and are kept apart here. Where only a bound is given, the exact number is not on record here.

The target in series [1] is T1, human α4β2 AChRs (Homo sapiens, UniProt P17787+P43681).
T1 construct: expressed in transfected cells
Put plainly: Acute activation, FLEXStation membrane potential dye, α4β2 cell line. The format is cell-based. The conditions noted are these: for Agonist type (full or partial): α4β2, mixture of stoichiometries. How it is done:
(§1) The parental cell line used for transfections was tsA201, derived from the human embryonic kidney cell line (HEK) 293 [33]. […] The cell line permanently expressing α3β4 AChRs has been described, [34]. A stable cell line expressing functional α7 AChRs was prepared by initially transfecting the tsA201 cell line with cDNA for α7 and subsequently transfecting with cDNA for the AChR-selective chaperone, human RIC-3.
(§2) Responses to nicotinic agonists were determined using a FLEXStation microplate fluorometer (Molecular Devices, Sunnyvale, CA) as described. For cell lines expressing α4β2 and α3β4 AChRs, the cells were plated at 10^5 cells/ml (100 µl/well) in black-walled clear-bottom 96 well plates (Costar, Fisher Scientific, Pittsbugh, PA), and incubated for 48 hours prior to assaying responses to various nicotinic agonists. The α7/RIC-3 expressing cells were plated at 5×10^5/ml in black-walled clear-bottom 96 well BioCoat plates (BD Biosciences, Franklin Lakes, NJ) in the continued presence of VPA and PBA, with the addition of 5% human AB serum (Pel-Freez Biologicals, Rogers, AR) to further increase expression of α7 [35]. The cells were then grown for 24 hours prior to the assay.
(§3) To measure responses to various nicotinic agonists, 100 µl of a fluorescent dye which is sensitive to changes in membrane potential (Molecular Devices) was added to the wells. The dye was prepared according to the manufacturer’s instructions, with the addition of atropine (0.5 µM) to block muscarinic responses. The plates were then incubated at 37°C for one hour prior to the assay. Serial dilutions of agonists were then prepared in Hanks Balanced Salt Solution (HBSS) in V-shaped 96-well plates (Fisher Scientific Co, Pittsburgh, PA). Fluorescent responses were measured in the FLEX Station at 25°C, with an excitation wavelength of 530 nm and an emission wavelength of 565 nm. Various agonists (50 µl) were added after the first 20 seconds and responses were followed for 60–120 seconds.
(§4) Data were graphed using GraphPad Prism software. Non-linear models (sigmoidal dose-response with variable slope or two site competition) were used to fit the concentration response curves. The EC50 and IC50 were calculated from the curves. Kaleidagraph software was used to determine Hill slopes and standard errors of the EC50 and IC50.

For series [2], the target named is T2, α3β4 AChRs (Homo sapiens, UniProt P30926+P32297).
T2 construct: expressed in transfected cells
The series can be described thus: Acute activation, FLEXStation membrane potential dye, α3β4 cell line. In kind it is cell-based. How it is done:
as §1, §2, §3, §4

Series [3] concerns the target T1, human α4β2 AChRs. The series can be described thus: Chronic desensitization (16 h agonist, then ACh response) and calculated smoldering activation, α4β2 cell line. In kind it is cell-based. The conditions noted are these: for Emax at 1 µM: 1 µM varenicline, read-out: Smoldering activation, % of the maximum response; for AChRs desensitized: varenicline 1 µM; for Extent of desensitization of α4β2 AChRs to ACh: prolonged exposure, up to high concentrations. How it is done: (§5) To measure desensitization, plates were prepared as for agonist assays. Sixteen hours prior to the assay, serial dilutions of agonists, prepared in regular growth medium, were added to the plates. One hour before the assay, the membrane potential-sensitive fluorescent dye with 0.5 µM atropine was added to the wells. […] Each data point represents the average of peak values for individual dose response curves from 4–8 wells.
as §4
(§6) Responses for the three different AChRs are shown in Figures 3, 4, 5, 6, along with the dose response curves for activation (the same as shown in Figure 2). The range of concentrations at which both sustained activation and desensitization can occur (“smoldering activation”) was calculated by multiplying the acute response to agonists at each concentration by the fractional response remaining after desensitization.

The target in series [4] is T2, α3β4 AChRs. The series can be described thus: Chronic desensitization (16 h agonist, then ACh response) and calculated smoldering activation, α3β4 cell line. In kind it is cell-based. The conditions noted are these: for Hill (desensitization) / Intercept of Activation and Desensitization Curves: α3β4: 1.0 mM ACh. How it is done:
as §5, §4, §6

The conditions of series [5]: cited from earlier work.
Series [6] has as its target T3, α7 AChRs (Homo sapiens, UniProt P36544). Put plainly: Acute activation, FLEXStation membrane potential dye, α7/RIC-3 cell line. In kind it is cell-based. The arrangement: expressed in transfected cells; grown in VPA and PBA. How it is done:
as §1, §2, §3, §4

The target in series [7] is T3, α7 AChRs. Put plainly: Chronic desensitization (16 h agonist, then ACh response) and calculated smoldering activation, α7 cell line. The format is cell-based. The arrangement: expressed in transfected cells; grown in VPA and PBA. Particulars: for Hill (desensitization) / Intercept of Activation and Desensitization Curves: α7: 10 µM ACh. How it is done:
as §5, §4, §6

Series [8] concerns (α4β2)2α4 AChRs. The conditions noted are these: (α4β2)2α4, concatenated AChRs in Xenopus oocytes; cited from earlier work.
Series [9] addresses T4, (α4β2)2β2 AChRs (Homo sapiens, UniProt P17787+P43681).
T4 construct: expressed in transfected cells
The conditions noted are these: (α4β2)2β2, concatenated AChRs in Xenopus oocytes; cited from earlier work.

For series [10] the following is noted: cited from earlier work. This is another data set of the same source.
[11] abbreviates: α4β2, higher sensitivity component or monophasic curve.
The mark [12] stands for this setting: α4β2, lower sensitivity component.
Where [13] appears, read: α4β2: 3 µM ACh ((α4β2)2β2 stoichiometry), centre of smoldering activation.
Where [14] appears, read: α4β2: 3 µM ACh, first component.
[15] abbreviates: α4β2: 100 µM ACh (both stoichiometries).
The mark [16] stands for this setting: α4β2: 100 µM ACh, first component.

T1 sequence (P43681 29-627 limits assumed): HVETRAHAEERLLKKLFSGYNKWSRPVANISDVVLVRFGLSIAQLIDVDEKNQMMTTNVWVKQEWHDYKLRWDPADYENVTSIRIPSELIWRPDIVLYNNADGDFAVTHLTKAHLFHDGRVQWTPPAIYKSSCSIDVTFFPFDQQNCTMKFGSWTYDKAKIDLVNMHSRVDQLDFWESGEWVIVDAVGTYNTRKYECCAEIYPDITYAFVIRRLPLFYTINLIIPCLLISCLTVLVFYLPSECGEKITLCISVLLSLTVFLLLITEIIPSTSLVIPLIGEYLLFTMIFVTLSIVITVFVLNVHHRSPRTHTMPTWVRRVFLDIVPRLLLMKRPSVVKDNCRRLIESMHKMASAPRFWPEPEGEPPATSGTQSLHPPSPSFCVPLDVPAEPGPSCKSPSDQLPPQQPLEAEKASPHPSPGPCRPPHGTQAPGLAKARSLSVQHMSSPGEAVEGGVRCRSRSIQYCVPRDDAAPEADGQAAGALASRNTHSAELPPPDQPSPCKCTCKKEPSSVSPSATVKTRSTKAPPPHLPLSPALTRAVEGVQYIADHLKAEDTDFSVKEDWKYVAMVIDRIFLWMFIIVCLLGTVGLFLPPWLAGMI
T1 sequence (P17787 26-502): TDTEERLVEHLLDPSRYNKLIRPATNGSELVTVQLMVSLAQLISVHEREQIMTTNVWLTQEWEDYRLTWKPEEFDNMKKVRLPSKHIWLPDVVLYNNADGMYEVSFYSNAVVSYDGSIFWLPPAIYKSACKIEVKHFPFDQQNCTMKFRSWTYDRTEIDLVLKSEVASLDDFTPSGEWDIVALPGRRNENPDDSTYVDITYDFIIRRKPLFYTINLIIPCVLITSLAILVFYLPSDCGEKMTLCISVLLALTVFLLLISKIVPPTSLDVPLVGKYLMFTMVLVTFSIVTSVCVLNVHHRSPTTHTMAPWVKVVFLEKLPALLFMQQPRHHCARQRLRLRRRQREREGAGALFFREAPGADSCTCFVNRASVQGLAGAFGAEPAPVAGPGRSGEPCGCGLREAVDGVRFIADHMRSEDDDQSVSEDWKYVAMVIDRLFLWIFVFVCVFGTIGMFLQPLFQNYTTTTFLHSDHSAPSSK
T3 sequence (P36544 23-502): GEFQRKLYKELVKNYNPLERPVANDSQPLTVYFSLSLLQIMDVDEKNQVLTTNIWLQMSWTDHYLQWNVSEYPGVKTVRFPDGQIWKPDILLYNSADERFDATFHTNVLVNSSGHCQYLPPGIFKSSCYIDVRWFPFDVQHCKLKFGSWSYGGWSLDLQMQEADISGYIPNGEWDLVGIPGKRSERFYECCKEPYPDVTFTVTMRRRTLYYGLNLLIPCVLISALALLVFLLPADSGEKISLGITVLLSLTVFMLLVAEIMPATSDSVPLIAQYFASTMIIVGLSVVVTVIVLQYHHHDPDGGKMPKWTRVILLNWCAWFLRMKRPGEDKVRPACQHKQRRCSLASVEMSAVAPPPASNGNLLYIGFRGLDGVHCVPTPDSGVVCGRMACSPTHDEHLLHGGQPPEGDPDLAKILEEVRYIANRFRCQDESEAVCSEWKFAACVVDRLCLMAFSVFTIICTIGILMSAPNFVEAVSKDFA
T2 sequence (P32297 32-505): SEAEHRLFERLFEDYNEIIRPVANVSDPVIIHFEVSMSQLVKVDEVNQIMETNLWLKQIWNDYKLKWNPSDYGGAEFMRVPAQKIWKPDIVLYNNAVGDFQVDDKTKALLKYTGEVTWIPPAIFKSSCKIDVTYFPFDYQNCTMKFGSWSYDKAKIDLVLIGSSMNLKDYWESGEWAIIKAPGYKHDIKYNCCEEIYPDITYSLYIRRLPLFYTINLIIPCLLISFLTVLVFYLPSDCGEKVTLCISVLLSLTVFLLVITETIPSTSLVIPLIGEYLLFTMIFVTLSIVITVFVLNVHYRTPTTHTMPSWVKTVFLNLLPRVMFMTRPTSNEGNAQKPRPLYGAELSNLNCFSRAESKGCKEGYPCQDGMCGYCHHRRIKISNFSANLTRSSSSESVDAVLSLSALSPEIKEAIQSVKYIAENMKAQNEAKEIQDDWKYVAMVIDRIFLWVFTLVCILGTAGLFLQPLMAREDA
T2 sequence (P30926 22-498): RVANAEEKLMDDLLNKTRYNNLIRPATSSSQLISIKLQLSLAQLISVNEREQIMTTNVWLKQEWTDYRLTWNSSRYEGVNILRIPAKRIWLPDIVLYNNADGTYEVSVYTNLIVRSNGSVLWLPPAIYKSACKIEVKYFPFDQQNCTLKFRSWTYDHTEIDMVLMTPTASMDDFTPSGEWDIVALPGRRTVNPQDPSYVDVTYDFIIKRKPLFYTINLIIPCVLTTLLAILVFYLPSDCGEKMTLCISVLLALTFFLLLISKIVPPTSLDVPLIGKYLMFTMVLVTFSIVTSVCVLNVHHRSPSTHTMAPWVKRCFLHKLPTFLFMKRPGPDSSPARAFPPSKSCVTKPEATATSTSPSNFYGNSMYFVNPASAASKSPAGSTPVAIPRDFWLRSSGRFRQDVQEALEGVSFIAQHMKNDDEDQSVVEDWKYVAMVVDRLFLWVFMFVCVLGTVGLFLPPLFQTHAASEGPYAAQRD
T4 sequence (P43681 29-627 limits assumed): as the sequence (P43681 29-627 limits assumed) above
T4 sequence (P17787 26-502): as the sequence (P17787 26-502) above

`c1cnc2cc3c(cc2n1)[C@@H]1CNC[C@H]3C1` [Varenicline, varenicline]: the “Agonist type (full or partial)” value in [1] is on record as “partial agonists”. Also, the “Hill (activation)” value in series [1] (setting [11]) worked out at 1.1; in series [1] (setting [12]), 1.8; in [2] (α3β4), 1.4; in [6] (α7), 3.5. For the same molecule, the Emax at 1 µM in series [3] ((α4β2)2α4 AChRs) was 23%; in [3] ((α4β2)2β2 AChRs), 4.3%. Moreover, the results for the AChRs desensitized in series [3] ((α4β2)2α4 AChRs) and in series [3] ((α4β2)2β2 AChRs) were approximately 50% and more than 90%, respectively. In addition, the “Extent of desensitization of α4β2 AChRs to ACh” value in series [3] is “fully desensitizing”. Moreover, the “Intercept of Activation and Desensitization Curves” value (“Intercept” below) in series [3] (setting [13]) is listed as 0.16 µM; in series [3] (setting [15]), 0.93 µM; in series [4], 2.1 µM; in series [7], 0.4 µM. Further, the “Hill (desensitization)” value is −0.6 in series [3] (setting [14]), −1.0 in [3] (setting [16]), −1.1 in series [4] and −2.6 in series [7]. In addition, the Peak levels in series [5] (after 14 days on standard dose of 1 mg twice daily) is given as 0.48 µM. The Peak blood levels in [5] (humans, after a 1 mg dose) was 0.1 µM. Further, the “Levels reached in patients” value in series [5] (patients on therapeutic doses) was 400 nM.
As to `CC(=O)OCC[N+](C)(C)C` [ACh, acetylcholine], in [1], the “Agonist type (full or partial)” value is recorded as “full agonists”. The “Amplitude of response to saturating concentration” value in series [1] (α4β2, saturating ACh (300 µM)) is 167,000+/−18,000 relative fluorescence units; in [2] (α3β4, saturating ACh (1.0 mM)) it was 161,000+/−14,000 relative fluorescence units; in series [6] (α7, saturating ACh (10 µM)), 54,000+/−3000 relative fluorescence units and 54,00+/−3000 relative fluorescence units. Besides, the “Hill (activation)” value turned out to be 1.5 in series [1] (setting [11]), 1.3 in series [1] (setting [12]), 1.8 in series [2] (α3β4) and 2.4 in series [6] (α7). Moreover, the “Time to maximum response after agonist application” value in [6] (α7, saturating ACh) was not above 5 s.
For `O=c1cccc2n1C[C@@H]1CNC[C@H]2C1` [Cytisine, cytisine], the EC50 in [1] (Activation EC50, α4β2 cell line, mixed stoichiometries, higher sensitivity component where two-site fit, else monophasic) came to 5500 ± 800 nM; in series [2] it was 7500 ± 1100 nM; in series [6] it was 2000 ± 60 nM. In addition, the “Efficacy (%) (relative to ACh)” value in series [1] (α4β2) stood at 34%; in series [2] (α3β4) it was 100%; in series [6] (α7) it was 100%. Also, the figures for the “Agonist type (full or partial)” value in series [1], in series [2] (α3β4) and in series [6] (α7) were “partial agonist”, “full agonist” and “full agonist”, respectively. The “Hill (activation)” value was 0.9 in [1] (setting [11]), 1.3 in [2] (α3β4) and 4.3 in [6] (α7). Besides, the IC50 in series [3] (Desensitization IC50, α4β2: 3 µM ACh, overnight (16 h) agonist, first (more sensitive) component) was 1 ± 0.5 nM; in series [3] (Desensitization IC50, α4β2: 3 µM ACh, overnight agonist, second component), 250 ± 100 nM; in series [3] (Desensitization IC50, α4β2: 100 µM ACh, overnight (16 h) agonist, first (more sensitive) component), 3 ± 0.3 nM; in [3] (Desensitization IC50, α4β2: 100 µM ACh, overnight agonist, second component), 20000 nM; in series [4], 1300 ± 500 nM; in series [7], 4200 ± 740 nM. The “Extent of desensitization of α4β2 AChRs to ACh” value in series [3] is reported as “fully desensitizing”. Also, the “Concentration from which the desensitization dose response curve shows a plateau” value in [3] (α4β2, assayed with 100 µM ACh) is given as “above 10 nM”. In addition, the “Intercept” value was 0.45 µM in [3] (setting [13]), 0.74 µM in series [3] (setting [15]), 4.1 µM in series [4] and 2.1 µM in series [7]. The “Hill (desensitization)” value is on record as −1.1 in series [3] (setting [14]); −1.1 in [3] (α4β2: 3 µM ACh, second component); −1.2 in series [3] (setting [16]); −0.8 in series [3] (α4β2: 100 µM ACh, second component); −0.6 in [4]; −1.4 in [7]. For the same molecule, the Agonist type result in [8] was “partial agonist”; in series [9], “inactive”.
As to `CN1CCC[C@H]1c1cccnc1` [Nicotine, nicotine], in series [1], the “Agonist type (full or partial)” value is “full agonists”. In addition, the “Hill (activation)” value in series [1] (setting [11]) turned out to be 1.8; in series [1] (setting [12]), 2.5; in series [2] (α3β4), 1.1; in [6] (α7), 1.7. In addition, the Emax at 0.1 µM is 18% in series [3] (read-out: Calculated smoldering activation, % of maximum response, (α4β2)2α4 stoichiometry, 0.1 µM nicotine) and 6% in series [3] (read-out: Calculated smoldering activation, % of maximum response, (α4β2)2β2 stoichiometry, 0.1 µM nicotine). Besides, the Emax at […] in series [3] (read-out: Calculated smoldering response, % of maximum response, (α4β2)2α4 stoichiometry, nicotine concentration of […]) was 54%. The “Intercept” value in series [3] (setting [13]) is 0.13 µM; in series [3] (setting [15]), 1.82 µM; in series [4], 8.7 µM; in series [7], 1.7 µM. For the same molecule, the “Hill (desensitization)” value in [3] (setting [14]) is on record as −1.0; in series [3] (setting [16]) it was −1.2; in [4], −0.9; in [7] it was −3.2. The “Concentrations found in the blood of smokers” value in series [10] was 58 to 340 nM.
